How the values were obtained:
[1] = system: HCC1937+BRCA1 tumors; assay: Orthotopic tumor explant model, HCC1937+BRCA1; format: in vivo; conditions: HCC1937+BRCA1 tumors in NSG mice, daily oral 400 mg/kg; p=0.1577
Description: (§1) Experiments in mice were conducted under a protocol approved by the IACUC of City of Hope. Because HCC1937 and HCC1937+BRCA1 cells from slow-growing tumors, they were implanted using MATRIGEL™ (Becton-Dickinson Biosciences). To establish tumors 4×10^6 cells in 200 μL serum-free medium containing 50% MATRIGEL™ were injected into the mammary fat pads around the inguinal area of a pair of 8 week old female NSG mice. Once the initial tenors reached 13 mm in diameter, they were dissected out minced into 3 mm pieces and implanted into the inguinal area of the mammary fat pads of the experimental mice Tumors were measured over a 28-day period, and for each time point, the student t-test was used to determine the statistical significance between daily gavage with 400 mg/kg COH29 in 30% solutol and corresponding vehicle control. The p value less than 0.05 (2 sides) was considered to indicate statistical significance

[2] = target: T1, PARP1 (Homo sapiens, UniProt P09874); assay: PARP1 activity in lysates of treated cells (chemiluminescent assay kit); format: cell-based
T1 construct: endogenous in cells; host or cells: HCC1937, HCC1937+BRCA1, UWB1.289, UWB1.289+BRCA1 (human breast / ovarian cancer lines)
T1 sequence (P09874 whole entry): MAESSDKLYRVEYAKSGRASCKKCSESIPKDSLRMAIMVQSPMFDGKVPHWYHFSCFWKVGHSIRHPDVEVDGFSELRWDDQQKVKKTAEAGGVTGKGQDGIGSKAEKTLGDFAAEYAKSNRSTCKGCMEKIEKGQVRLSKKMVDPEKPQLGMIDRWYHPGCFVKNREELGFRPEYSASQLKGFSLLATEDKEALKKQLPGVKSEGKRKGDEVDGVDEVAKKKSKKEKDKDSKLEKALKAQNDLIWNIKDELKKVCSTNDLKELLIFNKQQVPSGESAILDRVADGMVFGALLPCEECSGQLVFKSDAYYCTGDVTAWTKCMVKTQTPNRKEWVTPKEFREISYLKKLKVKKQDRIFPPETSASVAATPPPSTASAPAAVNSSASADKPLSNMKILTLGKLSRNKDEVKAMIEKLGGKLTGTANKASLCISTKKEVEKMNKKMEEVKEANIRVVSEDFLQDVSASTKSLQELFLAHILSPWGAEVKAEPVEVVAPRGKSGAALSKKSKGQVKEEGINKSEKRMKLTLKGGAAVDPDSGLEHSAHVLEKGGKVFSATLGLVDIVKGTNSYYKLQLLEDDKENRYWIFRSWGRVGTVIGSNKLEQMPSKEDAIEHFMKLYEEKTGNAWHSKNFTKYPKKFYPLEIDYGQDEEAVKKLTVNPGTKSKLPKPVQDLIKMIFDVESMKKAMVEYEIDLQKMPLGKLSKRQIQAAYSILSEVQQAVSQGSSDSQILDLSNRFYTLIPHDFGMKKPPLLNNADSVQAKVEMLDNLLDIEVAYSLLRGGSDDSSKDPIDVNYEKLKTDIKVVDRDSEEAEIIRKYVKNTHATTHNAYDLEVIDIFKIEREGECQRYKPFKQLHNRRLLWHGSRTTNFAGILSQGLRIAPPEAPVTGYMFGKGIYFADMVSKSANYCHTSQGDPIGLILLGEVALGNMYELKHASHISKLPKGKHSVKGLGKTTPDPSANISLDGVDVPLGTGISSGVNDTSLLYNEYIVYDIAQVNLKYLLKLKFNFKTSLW
Description: The PARP1 activity was determined using the PARP1 Chemiluminscent Assay Kit (BPS Bioscience, San Diego) according to the manufacturer's protocol. Briefly, the ribosylation reaction was carried out with activated DNA in PARP assay buffer using test inhibitor, positive control, substrate control and blank reactions, for 1 hour at 25° C. Detection was by streptavidin-HRP with chemiluminescent substrate A and B read in a luminometer.

[3] = system: HCC1937 + BRCA1; assay: Cytotoxicity, HCC1937+BRCA1 cells; format: cell-based, human; conditions: Homo sapiens; HCC1937 + BRCA1, triple negative; COH29 72 h
Description: (§2) All cell lines were acquired from the American Type Culture Collection (Manassas, Va., USA). Cells were maintained in RPMI 1640 medium (Mediatech) with 10% fetal bovine serum, 2 mM glutamine, and 100 U of penicillin and 100 μg of streptomycin per ml of medium (Sigma) at 37° C. in 5% CO2. To isolate HCC1437+BRCA1 cells, parental HCC1937 cells were transfected with pcDNA3.1 plasmid expressing full-length BRCA1 cDNA. Stable transfectant clones were selected and used for drug sensitivity assays. For stable transfection, cells at 30-40% confluence were incubated overnight with […] of plasmid DNA, using FUGENE® 6 transfectin reagent (Roche Molecular Biochemical, Monza, Italy) according to the manufacturer's instructions. Cells were then selected in puromycin (1 μg/ml) (Invitrogen life Technologies, La Jolla, Calif., USA.) After 20 to 30 days, viable puromycin-resistant colonies from HCC1937 transfections were expanded and screened. The clones that stably expressed […] and retained growth potential were assayed for BRCA1 expression by Western blot analysis. By Western blot analysis, we evaluated the restoration of BRCA1 expression in the puromycin-resistant cDNA/transfectant cells.
The MTT cytotoxicity assay was performed by incubating with MTT and monitoring the MTT formazan formed by viable cells with a microplate reader at a wavelength of 560 nm; the survival, ratio was determined using the formula: (Atest−Ablank)/(Acontrol−Ablank)×100%. The cytotoxicity was determined in 96-well plates using the semiautomatic fluorescence-based Digital Imaging Microscopy System (DIMSCAN). DIMSCAN uses digital imaging microscopy to quantify viable cells, which selectively accumulate FDA (fluorescein diacetate; Alfa Aesar, Ward Hill, Mass.). DIMSCAN is capable of measuring cytotoxicity over a 4 log dynamic range by quantifying total fluorescence per well (which is proportional to the number of viable cells) after elimination of the background fluorescence by digital thresholding and eosin Y (Mallinckrodt Baker, Center Valley, Pa.) quenching. […]

[4] = target: RR (Homo sapiens, UniProt P31350); conditions: previously reported, ref (6); cited from earlier work
Sequence of RR (P31350 whole entry): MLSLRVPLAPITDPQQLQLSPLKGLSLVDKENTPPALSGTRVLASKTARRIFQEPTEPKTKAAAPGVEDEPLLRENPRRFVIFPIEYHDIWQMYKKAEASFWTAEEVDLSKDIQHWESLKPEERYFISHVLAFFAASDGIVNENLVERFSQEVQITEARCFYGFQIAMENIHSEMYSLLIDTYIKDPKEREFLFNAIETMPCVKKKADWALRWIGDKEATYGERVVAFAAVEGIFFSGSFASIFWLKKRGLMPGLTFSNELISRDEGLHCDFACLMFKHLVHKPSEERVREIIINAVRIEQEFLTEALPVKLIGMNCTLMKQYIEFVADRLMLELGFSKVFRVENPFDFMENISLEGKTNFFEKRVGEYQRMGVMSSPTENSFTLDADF

[5] = system: UWB1.289; assay: Cytotoxicity, UWB1.289 cells; format: cell-based, human; conditions: Homo sapiens, UWB1289; UWB1.289, BRCA1-defective ovarian cancer cells; COH29 72 h; read-out: IC50, mean ± SEM
Description: as §2
The MTT cytotoxicity assay was performed by incubating with MTT and monitoring the MTT formazan formed by viable cells with a microplate reader at a wavelength of 560 nm; the survival, ratio was determined using the formula: (Atest−Ablank)/(Acontrol−Ablank)×100%. The cytotoxicity was determined in 96-well plates using the semiautomatic fluorescence-based Digital Imaging Microscopy System (DIMSCAN). DIMSCAN uses digital imaging microscopy to quantify viable cells, which selectively accumulate FDA (fluorescein diacetate; Alfa Aesar, Ward Hill, Mass.). DIMSCAN is capable of measuring cytotoxicity over a 4 log dynamic range by quantifying total fluorescence per well (which is proportional to the number of viable cells) after elimination of the background fluorescence by digital thresholding and eosin Y (Mallinckrodt Baker, Center Valley, Pa.) quenching. Cells were seeded into 96-well plates in 100 μL of complete medium at 2,000 to 5,000 cells per well depending on cell line growth rate. After overnight incubation, test compound was added to each well at various concentrations in 50 μL of culture medium. […] Total fluorescence per well was then measured using DIMSCAN, and the results were expressed as the ratio of the fluorescence in treated wells to the fluorescence in untreated wells (survival fraction).

[6] = system: HCC1937 tumors; assay: Orthotopic tumor explant model, HCC1937; format: in vivo; conditions: HCC1937 tumors in mammary fat pads of NSG mice, daily oral 400 mg/kg, 28 days
Description: as §1

[7] = system: NHEJ pathway; assay: NHEJ DNA repair, GFP-based chromosomal reporter EJ5-GFP; format: cell-based; conditions: EJ5-GFP reporter cells, 24 h
Description: The EJ2 cells were generated to evaluate Alt-NHEJ through monitoring the fluorescence intensity of GFP and EJ5 cells were used to determine NJEJ as described previously. (23) Cells were seeded into 6-well plate and treated with COH29 or cisplatin at different concentration for 24 hours. The cells were then trypsinized, washed, and analyzed by flow cytometry.

PARP1 activity, treated cells ([2]; HCC1937+BRCA1, 24 h, untreated 2336878 cps): 2041097 cps | PARP1 activity, treated cells ([2]; HCC1937, 24 h, untreated 726177 cps): 427851 cps | PARP1 activity, treated cells ([2]; UWB1.289+BRCA1, 8 h, untreated printed 145769 cps): 2129944 cps | PARP1 activity, treated cells ([2]; UWB1.289, 8 h, untreated printed 113559 cps): 774611 cps
Compound: O=C(Nc1nc(-c2ccc(O)c(O)c2)c(-c2ccccc2)s1)c1ccc(O)c(O)c1 [COH29]
tumor size compared to vehicle controls [1]: not significantly smaller | IC50 [3]: 35 ± 3.63 µM | effect of RR inhibition on dNTP [4]: causes dNTP depletion in vivo | IC50 [5]: 12.3 ± 1.15 µM | growth of tumors compared to vehicle [6]: significantly (p=0.0007) suppressed | NHEJ repair efficiency [7]: little effect on NHEJ repair

Source: patent US10201530B2, “Treatment of BRCA1-defective cancer or resistant cancers” (City of Hope, priority 2014, dated 2019)
